Laboratory results published in patent US9023789B2, “Amylin analogs and pharmaceutical compositions thereof” (Novo Nordisk A/S, priority 2012, dated 2015).
pIC50: −log10 of the molar value. Numbered stars: 1 amine (or outer) side, 2 acyl side, 3 side chain; on linkers, the order of the positions; unused ones are H or OH. Bridge positions count the residues as written; N and C are the ends. Peptide text beside a SMILES is read from it. * marks the point of attachment. C20 diacid = O=C(O)CCCCCCCCCCCCCCCCCCC(=O)*; γGlu = O=C(O)[C@H](CCC(=O)[*:2])N[*:1]

Tests used:
[1] = target: T1, human amylin 3(a) receptor (human calcitonin receptor + RAMP-3) in BHK570 cells (Homo sapiens, UniProt O60896+P30988); assay: ASSAY (II)a functional assay, human amylin receptor (CRE luciferase); assay type: cell-based
T1 construct: expressed in transfected cells
Outline: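 Ligand exposure 3 h at 37 °C, 5% CO2 in DMEM with 10% FBS, 10 mM Hepes pH 7.4. cAMP-driven luciferase read by luminescence after 30 min LucLite at room temperature.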

[2] = target: T2, rat calcitonin receptor (Rattus norvegicus, UniProt P32214); assay: ASSAY (VIII) binding to the rat calcitonin receptor; conditions: Table 7, read-out: rCTR bind IC50
T2 construct: expressed in transfected cells; host or cells: BHK tk'ts 13 (transient, FuGENE 6), membranes
T2 sequence (P32214 25-479 isoform P32214-2 limits assumed): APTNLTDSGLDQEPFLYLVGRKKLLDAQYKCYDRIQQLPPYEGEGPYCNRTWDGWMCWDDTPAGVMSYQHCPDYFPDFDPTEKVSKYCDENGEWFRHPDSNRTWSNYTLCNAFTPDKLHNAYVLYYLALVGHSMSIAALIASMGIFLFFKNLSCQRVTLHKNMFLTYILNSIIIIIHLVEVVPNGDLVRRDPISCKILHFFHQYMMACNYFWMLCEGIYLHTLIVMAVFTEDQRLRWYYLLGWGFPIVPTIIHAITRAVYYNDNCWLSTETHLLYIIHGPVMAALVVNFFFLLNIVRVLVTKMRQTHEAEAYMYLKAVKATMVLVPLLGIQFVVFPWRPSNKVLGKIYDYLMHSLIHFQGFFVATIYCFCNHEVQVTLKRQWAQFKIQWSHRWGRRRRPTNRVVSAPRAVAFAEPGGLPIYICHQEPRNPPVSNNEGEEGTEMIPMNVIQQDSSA
Outline: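 Rat calcitonin receptor is expressed transiently in BHK tk′ts 13 cells cultured in DMEM with 10% FBS. Roughly two days (approximately 48 hours) post-transfection, cells are harvested for membrane preparation.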

[3] = target: T3, rat amylin receptor (rat calcitonin receptor + rat RAMP 3) (Rattus norvegicus, UniProt P32214+Q9JJ73); assay: ASSAY (VI) binding to the rat amylin receptor; conditions: for pIC50: binding to rat amylin receptor, read-out: rAmylin-R bind IC50
T3 construct: expressed in transfected cells; host or cells: BHK tk'ts 13 (transient, FuGENE 6), membranes
T3 sequence (P32214 25-479 isoform P32214-2 limits assumed): T2 sequence (P32214 25-479 isoform P32214-2 limits assumed)
T3 sequence (Q9JJ73 23-147 partner): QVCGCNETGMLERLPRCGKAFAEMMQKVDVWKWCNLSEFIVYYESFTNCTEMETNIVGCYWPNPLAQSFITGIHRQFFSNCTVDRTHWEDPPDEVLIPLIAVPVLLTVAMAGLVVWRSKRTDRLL
Outline: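 This assay measured binding to the rat amylin receptor. BHK tk′ts 13 cells were transiently transfected with the rat calcitonin receptor using FuGENE® 6 (Roche), following the manufacturer's recommendations. About 48 hours after transfection, the cells were harvested and membranes were prepared from them for the binding determination.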

[4] = target: T4, human amylin receptor (membranes from Amylin 3(a)/CRE-luc cells) (Homo sapiens, UniProt O60896+P30988); assay: ASSAY (V) binding to the human amylin receptor (SPA, 125I-rat amylin);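 note: competition binding of cell membranes (35 ng/µL) mixed with SPA beads in 384-well plates at 40 µL total volume, read by scintillation counting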
T4 construct: expressed in transfected cells
T4 sequence (P30988 25-474): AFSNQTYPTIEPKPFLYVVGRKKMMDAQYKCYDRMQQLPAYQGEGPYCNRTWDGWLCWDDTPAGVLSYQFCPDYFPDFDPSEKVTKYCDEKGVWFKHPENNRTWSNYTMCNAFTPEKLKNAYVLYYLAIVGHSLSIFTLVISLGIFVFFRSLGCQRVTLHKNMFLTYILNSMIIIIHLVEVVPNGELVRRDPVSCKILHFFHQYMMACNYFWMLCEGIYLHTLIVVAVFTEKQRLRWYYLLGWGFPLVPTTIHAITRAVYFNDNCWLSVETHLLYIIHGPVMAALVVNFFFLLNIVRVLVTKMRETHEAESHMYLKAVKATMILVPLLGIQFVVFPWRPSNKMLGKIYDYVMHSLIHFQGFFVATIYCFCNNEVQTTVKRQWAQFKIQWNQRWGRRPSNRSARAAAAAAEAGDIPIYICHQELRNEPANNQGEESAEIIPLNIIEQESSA
T4 sequence (O60896 24-148 partner): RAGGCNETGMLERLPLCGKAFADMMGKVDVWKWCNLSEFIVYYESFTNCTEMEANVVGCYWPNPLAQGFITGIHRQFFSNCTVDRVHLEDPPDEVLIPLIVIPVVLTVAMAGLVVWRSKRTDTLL

[5] = hCTR funct. EC50 divided by hAmylin-R funct. EC50
[6] = hCTR funct. EC50 over hAmylin-R funct. EC50
[7] = human functional selectivity: hCTR funct. EC50 / hAmylin-R funct. EC50
[8] = Table 7, rat binding selectivity, rCTR IC50 / rAmylin-R IC50
[9] = Table 7a (preferred compounds), rat binding selectivity, rCTR IC50 / rAmylin-R IC50
[10] = ratio of rCTR bind IC50 to rAmylin-R bind IC50
[11] = Table 5, selectivity, hCTR bind IC50 / hAmylin-R bind IC50
[12] = Table 5a, selectivity, hCTR bind IC50 / hAmylin-R bind IC50
[13] = Table 5b, selectivity, hCTR bind IC50 / hAmylin-R bind IC50
[14] = Table 5c, selectivity, hCTR bind IC50 / hAmylin-R bind IC50
[15] = Table 7, human binding selectivity, included for comparison
[16] = Table 7a (preferred compounds), human binding selectivity, included for comparison
[17] = ratio of human calcitonin receptor binding IC50 to human amylin receptor binding IC50

SMILES | Ratio hCT/hAmylin funct. [1, 5] | Ratio hCT/hAmylin funct. [1, 6] | Ratio hCT/hAmylin funct. [1, 7] | pIC50 [2] | pIC50 ([3]; Table 7) | Ratio rCT/rAmylin binding [3, 8] | Ratio rCT/rAmylin binding [3, 9] | Ratio rCT/rAmylin binding [3, 10] | Ratio hCT/hAmylin binding [4, 11] | Ratio hCT/hAmylin binding [4, 12] | Ratio hCT/hAmylin binding [4, 13] | Ratio hCT/hAmylin binding [4, 14] | Ratio hCT/hAmylin binding [4, 15] | Ratio hCT/hAmylin binding [4, 16] | Ratio hCT/hAmylin binding [4, 17]
CC[C@H](C)[C@H](NC(=O)[C@H](C)NC(=O)CNC(=O)[C@H](Cc1ccccc1)NC(=O)[C@H](CC(N)=O)NC(=O)[C@@H]1CCCN1C(=O)[C@H](CO)NC(=O)[C@H](CO)NC(=O)[C@H](Cc1c[nH]cn1)NC(=O)[C@H](CCCNC(=N)N)NC(=O)[C@H](CC(C)C)NC(=O)[C@H](Cc1ccccc1)NC(=O)[C@H](CC(N)=O)NC(=O)[C@H](C)NC(=O)[C@H](CC(C)C)NC(=O)[C@H](CCCNC(=N)N)NC(=O)[C@H](CCC(N)=O)NC(=O)[C@@H](NC(=O)[C@H](C)NC(=O)[C@@H]1CSSC[C@H](NC(=O)[C@@H](N)CCCCNC(=O)COCCOCCNC(=O)COCCOCCNC(=O)CC[C@H](NC(=O)CCCCCCCCCCCCCCCCCCC(=O)O)C(=O)O)C(=O)N[C@@H](CC(N)=O)C(=O)N[C@@H]([C@@H](C)O)C(=O)N[C@@H](C)C(=O)N[C@@H]([C@@H](C)O)C(=O)N1)[C@@H](C)O)C(=O)N1CCC[C@H]1C(=O)N[C@@H](CO)C(=O)N[C@@H](CO)C(=O)N[C@H](C(=O)N[C@@H](CC(N)=O)C(=O)N[C@H](C(=O)NCC(=O)N[C@@H](CO)C(=O)N[C@@H](CCC(=O)O)C(=O)N[C@H](C(=O)N[C@@H](Cc1ccc(O)cc1)C(N)=O)[C@@H](C)O)C(C)C)[C@@H](C)O [Example 25] | 46.2 | 46.2 | 46.2 | 6.88 | 8.46 | 37.7 | 37.7 | 37.7 | 56.5 | 56.5 | 56.5 | 56.5 | 56.5 | 56.5 | 56.5
CC[C@H](C)[C@H](NC(=O)[C@H](C)NC(=O)CNC(=O)[C@H](Cc1ccccc1)NC(=O)[C@H](CC(N)=O)NC(=O)[C@@H]1CCCN1C(=O)[C@H](CO)NC(=O)[C@H](CO)NC(=O)[C@H](Cc1c[nH]cn1)NC(=O)[C@H](CCCNC(=N)N)NC(=O)[C@H](CC(C)C)NC(=O)[C@H](Cc1ccccc1)NC(=O)[C@H](CC(N)=O)NC(=O)[C@H](C)NC(=O)[C@H](CC(C)C)NC(=O)[C@H](CCCNC(=N)N)NC(=O)[C@H](CCC(N)=O)NC(=O)[C@@H](NC(=O)[C@H](C)NC(=O)[C@@H]1CSSC[C@H](NC(=O)[C@@H](N)CCCCNC(=O)CC[C@H](NC(=O)CCCCCCCCCCCCCCCCCCC(=O)O)C(=O)O)C(=O)N[C@@H](CC(N)=O)C(=O)N[C@@H]([C@@H](C)O)C(=O)N[C@@H](C)C(=O)N[C@@H]([C@@H](C)O)C(=O)N1)[C@@H](C)O)C(=O)N1CCC[C@H]1C(=O)N[C@@H](CO)C(=O)N[C@@H](CO)C(=O)N[C@H](C(=O)N[C@@H](CC(N)=O)C(=O)N[C@H](C(=O)NCC(=O)N[C@@H](CO)C(=O)N[C@@H](CCC(=O)O)C(=O)N[C@H](C(=O)N[C@@H](Cc1ccc(O)cc1)C(N)=O)[C@@H](C)O)C(C)C)[C@@H](C)O [Example 27] | 22.6 | 22.6 | 22.6 | 7.04 | 9.21 | 146.8 | 146.8 | 146.8 | 41.3 | 41.3 | 41.3 | 41.3 | 41.3 | 41.3 | 41.3
CC[C@H](C)[C@H](NC(=O)[C@H](C)NC(=O)CNC(=O)[C@H](Cc1ccccc1)NC(=O)[C@H](CC(N)=O)NC(=O)[C@@H]1CCCN1C(=O)[C@H](CO)NC(=O)[C@H](CO)NC(=O)[C@H](Cc1c[nH]cn1)NC(=O)[C@H](CCCNC(=N)N)NC(=O)[C@H](CC(C)C)NC(=O)[C@H](Cc1ccccc1)NC(=O)[C@H](Cc1c[nH]cn1)NC(=O)[C@H](C)NC(=O)[C@H](CC(C)C)NC(=O)[C@H](CCCNC(=N)N)NC(=O)[C@H](CCC(N)=O)NC(=O)[C@@H](NC(=O)[C@H](C)NC(=O)[C@@H]1CSSC[C@H](NC(=O)[C@H](CCCCN)NC(=O)CC[C@H](NC(=O)CCCCCCCCCCCCCCCCCCC(=O)O)C(=O)O)C(=O)N[C@@H](CC(N)=O)C(=O)N[C@@H]([C@@H](C)O)C(=O)N[C@@H](C)C(=O)N[C@@H]([C@@H](C)O)C(=O)N1)[C@@H](C)O)C(=O)N1CCC[C@H]1C(=O)N[C@@H](CO)C(=O)N[C@@H](CO)C(=O)N[C@H](C(=O)N[C@@H](CC(N)=O)C(=O)N[C@H](C(=O)NCC(=O)N[C@@H](CO)C(=O)N[C@@H](CCC(=O)O)C(=O)N[C@H](C(=O)N[C@@H](Cc1ccc(O)cc1)C(N)=O)[C@@H](C)O)C(C)C)[C@@H](C)O [Example 30] ({C20 diacid-γGlu}-KCNTATCATQRLAHFLRHSSPNFGAIPSSTNVGSETY-NH2; disulfide 2-7) | 12.6 | 12.6 | 12.6 | 6.94 | 8.50 | 36.1 | 36.1 | 36.1 | 23.6 | 23.6 | 23.6 | 23.6 | 23.6 | 23.6 | 23.6
CC[C@H](C)[C@H](NC(=O)[C@H](C)NC(=O)CNC(=O)[C@H](Cc1ccccc1)NC(=O)[C@H](CC(N)=O)NC(=O)[C@@H]1CCCN1C(=O)[C@H](CO)NC(=O)[C@H](CO)NC(=O)[C@H](Cc1c[nH]cn1)NC(=O)[C@H](CCCNC(=N)N)NC(=O)[C@H](CC(C)C)NC(=O)[C@H](Cc1ccccc1)NC(=O)[C@H](CCC(=O)O)NC(=O)[C@H](C)NC(=O)[C@H](CC(C)C)NC(=O)[C@H](CCCNC(=N)N)NC(=O)[C@H](CCC(N)=O)NC(=O)[C@@H](NC(=O)[C@H](C)NC(=O)[C@@H]1CSSC[C@H](NC(=O)[C@H](CCCCN)NC(=O)CC[C@H](NC(=O)CCCCCCCCCCCCCCCCCCC(=O)O)C(=O)O)C(=O)N[C@@H](CC(N)=O)C(=O)N[C@@H]([C@@H](C)O)C(=O)N[C@@H](C)C(=O)N[C@@H]([C@@H](C)O)C(=O)N1)[C@@H](C)O)C(=O)N1CCC[C@H]1C(=O)N[C@@H](CO)C(=O)N[C@@H](CO)C(=O)N[C@H](C(=O)N[C@@H](CC(N)=O)C(=O)N[C@H](C(=O)NCC(=O)N1CCC[C@H]1C(=O)N[C@@H](CC(N)=O)C(=O)N[C@H](C(=O)N[C@@H](Cc1ccc(O)cc1)C(N)=O)[C@@H](C)O)C(C)C)[C@@H](C)O [Example 32] ({C20 diacid-γGlu}-KCNTATCATQRLAEFLRHSSPNFGAIPSSTNVGPNTY-NH2; disulfide 2-7) | 6.6 | 6.6 | 6.6 | 8.22 | 9.75 | 34.0 | 34.0 | 34.0 | 10.9 | 10.9 |  |  | 10.9 | 10.9 | 10.9
